{"source": "patent US20260216362A1", "about": "“ANTI-BDCA2 ANTIBODY-DRUG CONJUGATE AND USE THEREOF” (DUALITY BIOLOGICS (SHANGHAI) CO., LTD., priority 2022, published 2026)", "key": {"[1]": {"test_system": "human PBMC cells", "experiment": "Inhibition by humanized antibodies of IFNα release from human PBMC cells stimulated by CpG-A", "format": "cell-based", "conditions": "Table 4, humanized antibodies; read-out: EC50, inhibition of release of cytokine IFNα from human PBMC cells stimulated by CpG-A", "method": "A series of humanized candidate antibody molecules were selected and subjected to the function detection of inhibiting the release of the cytokine IFNα from the human PBMC cells stimulated by CpG-A. The cryopreserved human PBMC cells were thawed and incubated in a complete culture medium (1640+10% FBS+1×NEAA+1×L-Glutamine) overnight for 18 h. The next day, the PBMC cells were collected and centrifuged at 600 g for 8 min, and the supernatant was discarded. The cells were resuspended to 8×10^6 cells/mL in a culture medium (1640+10% FBS), and the mixture was added to a 3799 cell culture plate at 100 μL/well. The test antibody was diluted in a 10-fold gradient (0.0001 nM-10 nM, and 0 concentration point was used as a control) with the culture medium (1640+10% FBS), and the diluted antibody was added to the PBMCs at 50 μL/well. The cells were resuspended and then incubated at 37° C. for 6 h. 50 μL of CpG-A (2 μM, Invitrogen, tlrl-2216-5) diluted in the culture medium (1640+10% FBS) was added to each well and mixed, followed by incubation at 37° C. for another 20 h. […]\nThe antibody MT1/3/5 (Mabtech, 3425-1H-20) was diluted to 4 μg/mL with PBS, and added to a CORNING ELISA plate at 100 μL/well. […] The values at OD450 nm were read on an ELISA plate reader, and curves were fitted using GraphPad Prism6. […]"}, "[2]": {"test_system": "cynomolgus monkey whole blood stimulated with CpG-A", "experiment": "IFN-α after in vitro CpG-A stimulation of whole blood of dosed cynomolgus monkeys", "format": "in vivo", "conditions": "10 mg/kg i.v.; CpGA-stimulated whole blood", "method": "Cytokine expression was detected by whole blood stimulation in vitro.\nThe cells were cultured at 37° C. for 18 h, and the supernatant was collected. The TNF-α and IFN-α concentration levels in the supernatant were detected using an ELISA kit.\nIFN-α concentration assay was performed using a Mabtech Human IFN-α (pan specific) ELISA kit (Cat. No. 3425-1H-20). 50 μL of serially diluted cytokine standard was added to each standard well, 50 μL of test sample was added to each sample well, and 50 μL of PBS was added to each blank control well. The cells were incubated at 37° C. for 2 h. The plate was washed 3 times, the liquid in each well was removed, and 300 µL of 1× PBST buffer working solution was added to each well; and after 1 minute of residence, the liquid in each well was discarded. 100 μL of detection antibody working solution was added to each well, and the cells were incubated at 37° C. for 1 h. […] The reading at wavelength 450 nm was detected using a Molecular device spectra max plus384 instrument within 10 min after the reaction was stopped.\nEvaluation criteria in FIGS. 12-13: the average expression level changes of IFNα/TNFα were evaluated after in vitro stimulation of the whole blood with CpGA at 200 μg/mL on days 0-33 after administration. […]"}}}
{"substance": "BIIB059: reference antibody specifically binding to BDCA2, sequence derived from U.S. Pat. No. 9,902,775B2; SEQ ID NO: 25 and 26 [reference compound]", "values": [{"measurement": "EC50", "setting": "[1]", "value": 0.04, "unit": "nM"}, {"measurement": "IFN-α expression level compared to the blank control group", "setting": "[2]", "value": "reduced"}]}
